The values that follow are results of earlier work, collected in patent US20200046643A1, “EXTENDED RELEASE FORMULATIONS OF CANNABINOIDS” (Glatt GmbH, priority 2018, published 2020).

Structures are written as SMILES.

The conditions of data set [1]: after oral administration.

Regarding `CCCCCc1cc(O)c2c(c1)OC(C)(C)[C@@H]1CCC(C)=C[C@@H]21` [THC, Δ9-tetrahydrocannabinol], in data set [1], the duration of action is 2 to 4 h, the “duration of appetite-increasing action” value is “up to 24 hours” and the “duration of psychoactive action” value was 4 to 6 h.
Take `C=C(C)[C@@H]1CCC(C)=C[C@H]1c1c(O)cc(CCCCC)cc1O` [CBD, cannabidiol]: the solubility in water result was “insoluble in water”. Also, the “solubility in organic solvents” value (organic solvents) is “soluble in organic solvents”.
Consider `CCCCCc1cc(O)c2c(c1)OC(C)(C)[C@@H]1CCC(C)=C[C@@H]21` [dronabinol], for which the solubility in water result was “insoluble in water”.
